From US4237135A, “2-(4-Ethyl-1-piperazinyl)-4-phenylquinoline, process for preparation thereof, and composition thereof” (Dainippon Pharmaceutical Co., Ltd., priority 1978, dated 1980)
Like-named read-outs stand apart in the source and are kept apart here.

Assays:
antidepressant activity = assay: Antidepressant activity, overall (Test 1); assay type: in vivo, male STD-ddY strain mice; male Wistar strain rats; conditions: for Antidepressant activity (in words): overall conclusion
Experimental: This effect was examined according to the method of […]. 2, 725 (1963)], using male STD-ddY strain mice weighing 20-25 g. […] Rectal temperature of each mouse was measured 4 hours later with a thermister (Shibaura Electric, BMG III-130). […] Male STD-ddY strain mice, weighing […], were used in groups of 10 mice each. […] The mice were tested for catalepsy 1 hour after the administration of test compounds. ED50 was calculated for each compound. […] Male STD-ddY strain mice, weighing 20-25 g, were used in groups of 10 mice each. […] Two hours after the tetrabenazine injection, the degree of eyelid closure (ptosis) was assessed on the basis of macroscopic scoring (0: no closure of the eyelid, 1: 1/4 closure, 2: 2/4 closure, 3: 3/4 closure and 4: complete closure), essentially according to the method of P. A. J. Janssen [Arzneim. Forsch. 15, 104 (1965)]. ED50 was calcuated for each compound. […] Male Wistar strain rats, weighing 240-260 g, which had developed mouse-killing behavior after ablation of the olfactory bulb according to the method of Z. P. Horovitz [Int. J. Neuropharmacol. 5, 405 (1966)], were used in groups of 15 animals each. […] ED50 was calculated for each compound.

[1] = system: hypothermia induced by reserpine; assay: Anti-reserpine activity: antagonistic effect on hypothermia induced by reserpine; assay type: in vivo, male STD-ddY strain mice; conditions: p.o.; for ED50: Mus musculus, po, 4 h, reserpine 5 mg/kg i.p.
Experimental: Pharmacological experiments have been done on the compound of the present invention, some known and novel analogous compounds and an antidepressant on the market, as mentioned below. In the experiments, ED50 was calculated by Litchfield-Wilcoxon method. This effect was examined according to the method of […]. 2, 725 (1963)], using male STD-ddY strain mice weighing 20-25 g. […] Rectal temperature of each mouse was measured 4 hours later with a thermister (Shibaura Electric, BMG III-130).

[2] = system: spontaneous locomotor activity; assay: Inhibitory effect on spontaneous locomotor activity; assay type: in vivo, male STD-ddY strain mice; conditions: for ED50: Mus musculus, po, read-out: Spontan. locomotor ED50; for Inhibition of spontaneous locomotion (in words): p.o.
Experimental: (§1) Pharmacological experiments have been done on the compound of the present invention, some known and novel analogous compounds and an antidepressant on the market, as mentioned below. In the experiments, ED50 was calculated by Litchfield-Wilcoxon method.
Male mice of STD-ddY strain, weighing 20-25 g, were used in groups of 5 mice each. Each test compound was given orally to the mice in 5 different doses, and 2 hours later the spontaneous locomotor activity of each mouse was measured for 3 minutes by means of an Animex locomotor activity meter (made by Farad Electronics). ED50 was calculated for each compound. The ED50 means the dose of test compound in which the locomotor activity was reduced to 50% of that of control group receiving saline.

[3] = system: catalepsy induced by reserpine; assay: Anti-reserpine activity: antagonistic effect on catalepsy induced by reserpine; assay type: in vivo, male STD-ddY strain mice; conditions: for ED50: Mus musculus, po, 1 h
Experimental: In the experiments, ED50 was calculated by Litchfield-Wilcoxon method. Male STD-ddY strain mice, weighing […], were used in groups of 10 mice each. […] The mice were tested for catalepsy 1 hour after the administration of test compounds. ED50 was calculated for each compound.

[4] = system: methamphetamine-induced locomotor activity; assay: Anti-methamphetamine effect (inhibitory effect on methamphetamine-induced locomotor activity); assay type: in vivo, male STD-ddY strain mice; conditions: for ED50: Mus musculus, ip, read-out: Anti-methamphetamine ED50; for Antagonizing methamphetamine-induced locomotor activity (in words): i.p.
Experimental: as §1
Male STD-ddY strain mice, weighing 20-25 g, were used in groups of 10 mice each. Groups of mice were injected intraperitoneally with 4 mg/kg of methamphetamine, and 30 minutes later each test compound was injected intraperitoneally in 3 different doses. One hour after the injection of methamphetamine, locomotor activity of each mouse was measured for 10 minutes with an Animex locomotor activity meter.

[5] = system: spontaneous and methamphetamine-induced locomotor activities; assay: Neuroleptics-like activity, overall (Test 2); assay type: in vivo, male STD-ddY strain mice; conditions: overall conclusion
[6] = system: ptosis induced by tetrabenazine; assay: Anti-tetrabenazine activity: antagonistic effect on ptosis induced by tetrabenazine; assay type: in vivo, male STD-ddY strain mice; conditions: Mus musculus, po; tetrabenazine 70 mg/kg i.p.; Table 2
Experimental: Pharmacological experiments have been done on the compound of the present invention, some known and novel analogous compounds and an antidepressant on the market, as mentioned below. In the experiments, ED50 was calculated by Litchfield-Wilcoxon method. Male STD-ddY strain mice, weighing 20-25 g, were used in groups of 10 mice each. […] Two hours after the tetrabenazine injection, the degree of eyelid closure (ptosis) was assessed on the basis of macroscopic scoring (0: no closure of the eyelid, 1: 1/4 closure, 2: 2/4 closure, 3: 3/4 closure and 4: complete closure), essentially according to the method of P. A. J. Janssen [Arzneim. Forsch. 15, 104 (1965)]. ED50 was calcuated for each compound.

tremorine-induced tremor = assay: Anti-tremorine activity (antagonistic effect on tremorine-induced tremor); assay type: in vivo, male STD-ddY strain mice; conditions: Mus musculus, po, read-out: Anti-tremorine activity ED50
Experimental: as §1
Male STD-ddY strain mice, weighing 20-25 g, were used in groups of 5 mice each. Each test compound was given orally to the mice in 5 different doses, and 2 hours later 20 mg/kg of tremorine was injected intraperitoneally. Half an hour after the injection of tremorine, each mouse was examined macroscopically for tremor severity, according to the rating scale with the scores 0, 1, 2, and 3 depending on the severity. ED50 was calculated for each compound. The ED50 means the dose of test compound in which the tremorine-induced tremor was inhibited by 50% in severity.

[7] = system: mouse-killing behavior of olfactory bulb-ablated rats; assay: Suppressing effect on mouse-killing behavior in olfactory bulb-ablated rats; assay type: in vivo, male Wistar strain rats; conditions: Rattus norvegicus, ip, 1 h, read-out: Suppressing effect on mouse-killing behavior of olfactory bulb-ablated rats, ED50
Experimental: as §1
Male Wistar strain rats, weighing 240-260 g, which had developed mouse-killing behavior after ablation of the olfactory bulb according to the method of Z. P. Horovitz [Int. J. Neuropharmacol. 5, 405 (1966)], were used in groups of 15 animals each. Each test compound was given intraperitoneally to the rats in 6 different doses, and 1 hours later the rats were each tested as to whether they killed a mouse or not. ED50 was calculated for each compound.

[8] = system: brain 5-hydroxyindoleacetic acid (5-HIAA); assay: Effect on brain monoamine metabolites: 5-HIAA; assay type: in vivo, male Wistar strain rats; conditions: 100 mg/kg p.o., *P<0.01
Experimental: (§2) Each test compound was given orally to the rats in a dose of 100 mg/kg and, 1, 3 and 6 hours later the rats were sacrificed. […] The concentrations of the monoamine metabolites were calculated in terms of ng/g wet brain tissue and expressed as % of the concentrations of controls receiving saline.

[9] = system: brain 3-methoxy-4-hydroxyphenylethylene glycol sulfate (MOPEG-SO4); assay: Effect on brain monoamine metabolites: MOPEG-SO4; assay type: in vivo, male Wistar strain rats; conditions: 100 mg/kg p.o.; for Brain MOPEG-SO4, % of control: *P<0.01
Experimental: as §2

[10] = system: brain homovanillic acid (HVA); assay: Effect on brain monoamine metabolites: HVA; assay type: in vivo, male Wistar strain rats; conditions: 100 mg/kg p.o.; for Brain HVA, % of control: *P<0.01
Experimental: as §2

[11] = Table 1, read-out: Anti-reserpine activity ED50, hypothermia
[12] = p.o., reserpine 5 mg/kg i.p., Table 1, read-out: Anti-reserpine activity ED50, catalepsy
[13] = Table 2, read-out: Anti-reserpine ED50, hypothermia
[14] = p.o., reserpine 5 mg/kg i.p., Table 2, read-out: Anti-reserpine ED50, catalepsy

Compound	ED50 [1, 11] [mg/kg]	ED50 ([2]; 2 hours after dosing) [mg/kg]	Inhibition of spontaneous locomotion (in words) [2]	ED50 ([4]; methamphetamine 4 mg/kg i.p.) [mg/kg]	Antagonizing methamphetamine-induced locomotor activity (in words) [4]	Neuroleptics-like activity (in words) [5]	Antidepressant activity (in words) (antidepressant activity)	ED50 [1, 13] [mg/kg]	ED50 [3, 14] [mg/kg]	ED50 [6] [mg/kg]	further results
Clc1ccc2nc(N3CCN(c4ccccc4)CC3)cc(-c3ccccc3)c2c1 [Compound 2, 6Chloro-2-(4-phenyl-1-piperazinyl)-4-phenylquinoline]	> 100	> 200	devoid of both activities	> 30	devoid of both activities	not seen	–	–	–	–	Anti-reserpine activity (in words) (antidepressant activity; hypothermia and catalepsy, p.o.): devoid of the anit-reserpine activity; ED50 [3, 12]: > 100 mg/kg
CN1CCN(c2cc(-c3ccccc3)c3ccccc3n2)CC1 [Compound 3, 2-(4-Methyl-1-piperazinyl)-4-phenylquinoline]	–	56.4	as potent as compound A	12.9	somewhat less potent	comparable to compound A	much less potent than the latter	13.9	4.7	10.4	–
CN(C)CCCN1c2ccccc2Sc2ccc(Cl)cc21 [Compound 7, 2chloro-10-(3-dimethylaminopropyl)phenothiazine]	–	–	–	–	–	–	–	–	–	–	ED50 ([2]; 2 h): 7.4 mg/kg; ED50 [4]: 1 mg/kg
CN(C)CCCN1c2ccccc2CCc2ccccc21 [Compound 6, 5-(3-dimethylaminopropyl)-10,11-dihydro-5H-dibenz[b,f]azepine]	21.5	–	devoid of both activities	–	devoid of both activities	not seen	–	21.5	–	4.9	ED50 (tremorine-induced tremor): 48.3 mg/kg; ED50 [7]: 5.5 mg/kg; ED50 ([2]; 2 h): > 200 mg/kg; ED50 ([3]; read-out: Anti-reserpine ED50, catalepsy): 38.3 mg/kg; ED50 ([3]; read-out: Anti-reserpine activity ED50, catalepsy): 38.3 mg/kg; Brain 5-HIAA, % of control ([8]; 1 hour): 88 % of control; Brain 5-HIAA, % of control ([8]; 3 hours): 84 % of control; Brain 5-HIAA, % of control ([8]; 6 hours): 73 % of control; Brain MOPEG-SO4 concentration / noradrenaline turnover (in words) [9]: significant decrease in brain MOPEG-SO4 concentration; Brain MOPEG-SO4, % of control ([9]; 1 hour): 87 % of control; Brain MOPEG-SO4, % of control ([9]; 3 hours): 80 % of control; Brain MOPEG-SO4, % of control ([9]; 6 hours): 70 % of control; ED50 [4]: > 30 mg/kg; Brain HVA concentration / dopamine turnover (in words) [10]: devoid of such activity; Brain HVA, % of control ([10]; 1 hour): 110 % of control; Brain HVA, % of control ([10]; 3 hours): 98 % of control
CN1CCN(c2cc(-c3ccccc3)c3cc(Cl)ccc3n2)CC1.Cl.Cl [Compound 1, 6-Chloro-2-(4-methyl-1-piperazinyl)-4-phenylquinoline dihydrochloride]	30.8	> 200	devoid of both activities	> 30	devoid of both activities	not seen	–	–	–	–	Activity in antagonizing reserpine hypothermia relative to compound A ([1]; versus compound A): 5 times less active; ED50 [3, 12]: 20 mg/kg; Activity in antagonizing reserpine catalepsy relative to compound A ([3]; versus compound A, p.o.): 13 times less active
CCCCN1CCN(c2cc(-c3ccccc3)c3ccccc3n2)CC1.O=C(O)/C=C\C(=O)O.O=C(O)/C=C\C(=O)O [Compound 5, 2-(4-n-Butyl-1-piperazinyl)-4-phenylquinoline dimaleate]	–	50.6	as potent as compound A	16.4	somewhat less potent	–	inferior to compound A	13.7	6.3	29.9	–
OC(CCN1CCCCC1)(c1ccccc1)C1CC2C=CC1C2 (stereo not shown) [Compound 8, 5-norbornen-2-yl-phenyl-1-piperidinepropanol]	–	–	–	–	–	–	–	–	–	–	ED50 (tremorine-induced tremor): 11.4 mg/kg
CCCN1CCN(c2cc(-c3ccccc3)c3ccccc3n2)CC1.Cl.Cl [Compound 4, 2-(4-n-Propyl-1-piperazinyl)-4-phenylquinoline dihydrochloride]	–	62.2	as potent as compound A	13.2	somewhat less potent	–	inferior to compound A	13.6	4.4	8.2	–
